Consider five compounds from ChEMBL document CHEMBL2331101, “Aldosterone synthase inhibitors” (ACS Med Chem Lett, 2013).

Type in all cases: cell-based
One data set deals with T1, CYP11B1 (Homo sapiens, UniProt P15538).
T1 sequence (P15538 whole entry): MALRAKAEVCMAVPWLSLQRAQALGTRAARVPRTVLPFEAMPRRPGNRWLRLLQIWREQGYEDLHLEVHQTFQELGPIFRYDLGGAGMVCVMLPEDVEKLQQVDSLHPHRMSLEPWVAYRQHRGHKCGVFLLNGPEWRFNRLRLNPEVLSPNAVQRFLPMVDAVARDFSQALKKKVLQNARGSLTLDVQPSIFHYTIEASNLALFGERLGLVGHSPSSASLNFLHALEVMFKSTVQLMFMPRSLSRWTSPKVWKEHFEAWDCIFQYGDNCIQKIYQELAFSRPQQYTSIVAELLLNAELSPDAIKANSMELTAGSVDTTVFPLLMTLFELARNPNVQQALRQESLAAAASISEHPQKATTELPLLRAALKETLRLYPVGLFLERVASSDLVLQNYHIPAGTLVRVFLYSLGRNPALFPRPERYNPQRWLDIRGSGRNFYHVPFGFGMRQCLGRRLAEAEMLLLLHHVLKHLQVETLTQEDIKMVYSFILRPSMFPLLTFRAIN
Kind of data set: (§1) Inhibition of human Cyp11B1 transfected in chinese hamster V79MZ cells using deoxycorticosterone as substrate incubated for 60 mins prior to substrate addition measured after 25 mins by HPLC analysis. To be noted: human, Chinese hamster V79MZ cells transfected with human CYP11B1, probe deoxycorticosterone.

In data set [1] the target is T2, Cytochrome P450 11B2, mitochondrial (Homo sapiens, UniProt P19099).
T2 sequence (P19099 whole entry): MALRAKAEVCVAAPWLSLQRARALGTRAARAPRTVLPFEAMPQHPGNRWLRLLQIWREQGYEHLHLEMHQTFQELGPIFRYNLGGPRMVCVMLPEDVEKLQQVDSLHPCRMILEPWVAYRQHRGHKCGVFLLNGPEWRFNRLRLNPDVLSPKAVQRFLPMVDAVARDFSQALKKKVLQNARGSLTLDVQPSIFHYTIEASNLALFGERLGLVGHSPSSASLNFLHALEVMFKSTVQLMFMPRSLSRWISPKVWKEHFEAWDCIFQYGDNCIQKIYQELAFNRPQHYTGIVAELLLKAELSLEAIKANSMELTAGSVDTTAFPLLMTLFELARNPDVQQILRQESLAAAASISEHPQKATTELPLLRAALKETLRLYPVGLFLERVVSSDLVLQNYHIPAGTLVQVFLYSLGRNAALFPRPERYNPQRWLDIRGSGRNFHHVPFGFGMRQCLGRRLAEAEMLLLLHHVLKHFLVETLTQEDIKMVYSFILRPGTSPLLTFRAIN
As to the kind of experiment: Inhibition of human Cyp11B2 transfected in chinese hamster V79MZ cells using deoxycorticosterone as substrate incubated for 60 mins prior to substrate addition measured after 50 mins by HPLC analysis.

Data set [2] addresses T3, Cytochrome P450 11B1, mitochondrial (Homo sapiens, UniProt P15538).
T3 sequence (P15538 whole entry): T1 sequence (P15538 whole entry)
The data set is described as §1.

The compound `Cc1nnc2n1-c1cc(Cl)c(-c3cncc4ccccc34)cc1CC2` gave an IC50 at 25 min at CYP11B1 above 10 µM.
The same measure, in the same setting: next, `COc1c(C)cncc1-c1cc2c(cc1F)-n1c(C)nnc1CC2`: above 10 µM.
On to `COC(C)(C)c1cncc(-c2ccc3c(c2)CCc2nnc(C)n2-3)c1`, for which the IC50 in data set [1] worked out at 5 nM; in data set [2] it was 108 nM.
The compound `Cc1nnc2n1-c1c(Cl)cc(-c3cnccc3C(F)(F)F)cc1CC2` registered an IC50 at 25 min against CYP11B1 above 30 µM.
Turning to `Cc1nnc2n1-c1ccc(-c3cncc4ccccc34)cc1CC2`, the IC50 in data set [1] worked out at 5 nM; in data set [2] it was 407 nM.
